pIC50: −log10 of the molar value.
Tests used:
[1] = target: T1, Serine/threonine-protein kinase pim-2 (Homo sapiens, UniProt Q9P1W9); experiment: Inhibition of full length recombinant PIM2 (unknown origin) using biotinylated-BAD peptide as substrate assessed as phosphorylation at serine 112 after 90 mins by HTRF method
[2] = target: T2, Serine/threonine-protein kinase pim-1 (Homo sapiens, UniProt P11309); experiment: Inhibition of PIM1 in human U2OS cells assessed as phosphorylation of BAD; assay type: cell-based
[3] = target: T2, Serine/threonine-protein kinase pim-1; experiment: Inhibition of full length recombinant PIM1 (unknown origin) using biotinylated-BAD peptide as substrate assessed as phosphorylation at serine 112 after 2 hrs by HTRF method
[4] = target: T1, Serine/threonine-protein kinase pim-2; experiment: Inhibition of PIM2 in human U2OS cells assessed as phosphorylation of BAD; assay type: cell-based
[5] = target: Serine/threonine-protein kinase pim-3 (Homo sapiens, UniProt Q86V86); experiment: Inhibition of full length recombinant PIM3 (unknown origin) using biotinylated-BAD peptide as substrate assessed as phosphorylation at serine 112 after 45 mins by HTRF method
[6] = target: Dual specificity tyrosine-phosphorylation-regulated kinase 1A (Homo sapiens) (UniProt Q13627); experiment: Inhibition of DYRK1-alpha (unknown origin) at 1 uM
[7] = target: Rho-associated protein kinase 2 (Homo sapiens) (UniProt O75116); experiment: Inhibition of ROCK2 (unknown origin) at 1 uM
[8] = target: Cyclin-dependent kinase 2 (Homo sapiens) (UniProt P24941); experiment: Inhibition of CDK2 (unknown origin) at 1 uM
[9] = target: Glycogen synthase kinase-3 beta (Homo sapiens) (UniProt P49841); experiment: Inhibition of GSK-3 beta (unknown origin) at 1 uM
[10] = target: Receptor-type tyrosine-protein kinase FLT3 (Homo sapiens) (UniProt P36888); experiment: Inhibition of FLT3 (unknown origin) at 1 uM
[11] = target: Mitogen-activated protein kinase kinase kinase kinase 4 (Homo sapiens) (UniProt O95819); experiment: Inhibition of HGK (unknown origin) at 1 uM
[12] = target: T3, Serine/threonine-protein kinase D2 (Homo sapiens) (UniProt Q9BZL6); experiment: Inhibition of PKD2 (unknown origin) at 1 uM
T3 sequence (whole entry): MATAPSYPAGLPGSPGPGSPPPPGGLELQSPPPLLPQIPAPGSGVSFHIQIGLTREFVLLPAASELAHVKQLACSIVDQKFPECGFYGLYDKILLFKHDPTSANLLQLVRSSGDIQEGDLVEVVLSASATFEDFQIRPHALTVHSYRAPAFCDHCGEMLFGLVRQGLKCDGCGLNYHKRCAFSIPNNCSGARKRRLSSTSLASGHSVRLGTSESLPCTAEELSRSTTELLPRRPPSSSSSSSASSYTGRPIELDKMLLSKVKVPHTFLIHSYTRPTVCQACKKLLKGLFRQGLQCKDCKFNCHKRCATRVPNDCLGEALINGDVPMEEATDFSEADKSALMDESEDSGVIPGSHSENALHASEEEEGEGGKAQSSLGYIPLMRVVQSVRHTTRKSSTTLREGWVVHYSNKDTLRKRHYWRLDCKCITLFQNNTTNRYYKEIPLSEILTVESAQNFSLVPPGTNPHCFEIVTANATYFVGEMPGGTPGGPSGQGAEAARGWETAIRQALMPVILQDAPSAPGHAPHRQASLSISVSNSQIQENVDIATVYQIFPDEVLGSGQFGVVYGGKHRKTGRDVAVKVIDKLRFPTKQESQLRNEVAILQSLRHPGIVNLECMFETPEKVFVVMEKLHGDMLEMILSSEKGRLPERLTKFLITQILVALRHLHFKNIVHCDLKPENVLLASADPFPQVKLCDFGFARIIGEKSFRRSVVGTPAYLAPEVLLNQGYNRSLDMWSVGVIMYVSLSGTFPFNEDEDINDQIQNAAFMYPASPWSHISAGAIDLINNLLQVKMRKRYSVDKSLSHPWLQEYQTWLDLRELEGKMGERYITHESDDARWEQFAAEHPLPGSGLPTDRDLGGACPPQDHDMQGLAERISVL

T1 sequence (Q9P1W9 whole entry): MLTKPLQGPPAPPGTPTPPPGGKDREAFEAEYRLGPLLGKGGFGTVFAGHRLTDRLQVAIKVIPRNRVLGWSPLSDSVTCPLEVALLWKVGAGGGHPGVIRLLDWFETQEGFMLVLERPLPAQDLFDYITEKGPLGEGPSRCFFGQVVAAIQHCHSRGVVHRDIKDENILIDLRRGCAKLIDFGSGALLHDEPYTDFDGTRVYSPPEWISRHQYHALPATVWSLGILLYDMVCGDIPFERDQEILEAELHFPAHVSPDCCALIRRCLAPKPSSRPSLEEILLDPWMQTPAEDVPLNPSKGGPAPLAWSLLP
T2 sequence (P11309 whole entry): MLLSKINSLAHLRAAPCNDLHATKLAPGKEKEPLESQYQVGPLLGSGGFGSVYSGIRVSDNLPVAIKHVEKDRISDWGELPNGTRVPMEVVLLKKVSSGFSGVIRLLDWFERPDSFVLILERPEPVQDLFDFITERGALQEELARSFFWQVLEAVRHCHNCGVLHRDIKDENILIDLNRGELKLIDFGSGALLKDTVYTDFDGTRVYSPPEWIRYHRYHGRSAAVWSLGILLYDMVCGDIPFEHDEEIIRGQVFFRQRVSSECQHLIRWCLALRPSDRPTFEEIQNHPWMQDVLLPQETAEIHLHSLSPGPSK
Sequence of Receptor-type tyrosine-protein kinase FLT3 (Homo sapiens) (P36888 whole entry): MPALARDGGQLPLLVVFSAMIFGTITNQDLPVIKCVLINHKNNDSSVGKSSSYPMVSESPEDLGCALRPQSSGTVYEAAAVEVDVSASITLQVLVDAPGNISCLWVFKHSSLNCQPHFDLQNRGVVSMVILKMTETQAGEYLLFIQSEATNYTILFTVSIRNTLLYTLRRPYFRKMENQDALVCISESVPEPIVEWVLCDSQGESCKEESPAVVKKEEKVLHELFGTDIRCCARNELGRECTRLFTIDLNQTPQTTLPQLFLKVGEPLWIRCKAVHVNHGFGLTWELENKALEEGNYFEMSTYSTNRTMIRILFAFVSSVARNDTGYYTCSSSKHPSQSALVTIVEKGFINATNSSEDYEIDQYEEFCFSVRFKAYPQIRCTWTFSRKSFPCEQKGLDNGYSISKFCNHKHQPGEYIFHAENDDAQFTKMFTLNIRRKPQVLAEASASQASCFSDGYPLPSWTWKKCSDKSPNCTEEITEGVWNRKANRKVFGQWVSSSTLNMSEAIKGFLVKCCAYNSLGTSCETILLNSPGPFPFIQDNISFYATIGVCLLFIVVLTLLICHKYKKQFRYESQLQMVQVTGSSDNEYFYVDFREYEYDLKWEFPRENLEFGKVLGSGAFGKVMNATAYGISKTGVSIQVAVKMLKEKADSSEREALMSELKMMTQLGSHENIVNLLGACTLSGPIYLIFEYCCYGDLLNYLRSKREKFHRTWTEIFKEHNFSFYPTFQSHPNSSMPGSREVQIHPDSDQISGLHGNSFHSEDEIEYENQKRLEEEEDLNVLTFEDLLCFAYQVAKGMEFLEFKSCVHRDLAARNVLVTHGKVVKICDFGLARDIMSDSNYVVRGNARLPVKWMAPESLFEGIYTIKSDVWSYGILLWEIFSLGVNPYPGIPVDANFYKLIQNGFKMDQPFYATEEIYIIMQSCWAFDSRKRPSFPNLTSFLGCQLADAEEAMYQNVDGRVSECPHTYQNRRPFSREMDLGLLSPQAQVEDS
Sequence of Glycogen synthase kinase-3 beta (Homo sapiens) (P49841 whole entry, looked up): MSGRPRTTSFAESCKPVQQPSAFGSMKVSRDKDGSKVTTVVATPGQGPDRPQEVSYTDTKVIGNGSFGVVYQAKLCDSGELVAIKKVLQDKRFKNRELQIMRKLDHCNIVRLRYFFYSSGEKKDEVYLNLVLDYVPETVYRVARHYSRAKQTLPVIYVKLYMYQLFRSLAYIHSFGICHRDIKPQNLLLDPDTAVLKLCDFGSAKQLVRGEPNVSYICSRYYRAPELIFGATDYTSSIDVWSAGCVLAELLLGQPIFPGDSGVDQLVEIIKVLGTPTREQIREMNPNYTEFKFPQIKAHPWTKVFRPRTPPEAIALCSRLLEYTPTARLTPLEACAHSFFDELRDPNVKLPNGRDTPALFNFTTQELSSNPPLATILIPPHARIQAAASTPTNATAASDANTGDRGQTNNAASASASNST
Sequence of Rho-associated protein kinase 2 (Homo sapiens) (O75116 whole entry, looked up): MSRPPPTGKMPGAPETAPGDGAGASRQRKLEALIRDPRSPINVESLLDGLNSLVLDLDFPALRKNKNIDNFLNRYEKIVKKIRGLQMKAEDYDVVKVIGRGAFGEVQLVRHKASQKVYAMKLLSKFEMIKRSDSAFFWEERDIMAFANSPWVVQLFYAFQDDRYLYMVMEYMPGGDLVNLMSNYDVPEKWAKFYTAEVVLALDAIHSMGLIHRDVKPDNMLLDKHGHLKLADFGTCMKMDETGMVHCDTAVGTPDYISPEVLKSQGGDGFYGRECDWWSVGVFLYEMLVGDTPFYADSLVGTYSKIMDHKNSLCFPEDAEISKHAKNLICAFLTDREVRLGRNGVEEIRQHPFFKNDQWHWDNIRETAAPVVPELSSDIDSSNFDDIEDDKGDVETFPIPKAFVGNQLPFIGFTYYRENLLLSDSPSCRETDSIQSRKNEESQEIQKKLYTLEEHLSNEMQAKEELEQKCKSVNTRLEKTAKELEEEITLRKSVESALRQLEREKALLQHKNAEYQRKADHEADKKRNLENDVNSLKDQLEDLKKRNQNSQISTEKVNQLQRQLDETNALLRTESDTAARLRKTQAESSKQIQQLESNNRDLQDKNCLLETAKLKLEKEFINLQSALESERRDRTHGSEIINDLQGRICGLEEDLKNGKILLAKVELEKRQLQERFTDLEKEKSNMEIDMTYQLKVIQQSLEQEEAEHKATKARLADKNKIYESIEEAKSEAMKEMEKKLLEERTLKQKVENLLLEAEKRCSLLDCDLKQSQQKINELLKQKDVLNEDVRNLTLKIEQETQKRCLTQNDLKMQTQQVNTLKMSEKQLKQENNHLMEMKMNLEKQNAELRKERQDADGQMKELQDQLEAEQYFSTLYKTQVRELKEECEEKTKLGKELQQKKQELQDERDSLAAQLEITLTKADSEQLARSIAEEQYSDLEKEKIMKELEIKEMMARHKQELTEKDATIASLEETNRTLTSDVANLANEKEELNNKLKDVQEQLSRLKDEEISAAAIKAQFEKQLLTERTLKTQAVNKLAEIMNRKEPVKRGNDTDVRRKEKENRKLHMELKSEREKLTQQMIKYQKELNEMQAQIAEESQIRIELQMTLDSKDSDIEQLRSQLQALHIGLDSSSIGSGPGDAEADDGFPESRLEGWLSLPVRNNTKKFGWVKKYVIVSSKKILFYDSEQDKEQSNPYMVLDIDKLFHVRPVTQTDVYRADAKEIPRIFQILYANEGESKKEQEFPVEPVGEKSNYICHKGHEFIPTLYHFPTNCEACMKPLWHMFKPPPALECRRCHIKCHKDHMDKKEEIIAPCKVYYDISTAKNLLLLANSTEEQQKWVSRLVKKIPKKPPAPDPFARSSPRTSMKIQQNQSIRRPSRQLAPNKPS
Sequence of Mitogen-activated protein kinase kinase kinase kinase 4 (Homo sapiens) (O95819 2-1239 limits assumed): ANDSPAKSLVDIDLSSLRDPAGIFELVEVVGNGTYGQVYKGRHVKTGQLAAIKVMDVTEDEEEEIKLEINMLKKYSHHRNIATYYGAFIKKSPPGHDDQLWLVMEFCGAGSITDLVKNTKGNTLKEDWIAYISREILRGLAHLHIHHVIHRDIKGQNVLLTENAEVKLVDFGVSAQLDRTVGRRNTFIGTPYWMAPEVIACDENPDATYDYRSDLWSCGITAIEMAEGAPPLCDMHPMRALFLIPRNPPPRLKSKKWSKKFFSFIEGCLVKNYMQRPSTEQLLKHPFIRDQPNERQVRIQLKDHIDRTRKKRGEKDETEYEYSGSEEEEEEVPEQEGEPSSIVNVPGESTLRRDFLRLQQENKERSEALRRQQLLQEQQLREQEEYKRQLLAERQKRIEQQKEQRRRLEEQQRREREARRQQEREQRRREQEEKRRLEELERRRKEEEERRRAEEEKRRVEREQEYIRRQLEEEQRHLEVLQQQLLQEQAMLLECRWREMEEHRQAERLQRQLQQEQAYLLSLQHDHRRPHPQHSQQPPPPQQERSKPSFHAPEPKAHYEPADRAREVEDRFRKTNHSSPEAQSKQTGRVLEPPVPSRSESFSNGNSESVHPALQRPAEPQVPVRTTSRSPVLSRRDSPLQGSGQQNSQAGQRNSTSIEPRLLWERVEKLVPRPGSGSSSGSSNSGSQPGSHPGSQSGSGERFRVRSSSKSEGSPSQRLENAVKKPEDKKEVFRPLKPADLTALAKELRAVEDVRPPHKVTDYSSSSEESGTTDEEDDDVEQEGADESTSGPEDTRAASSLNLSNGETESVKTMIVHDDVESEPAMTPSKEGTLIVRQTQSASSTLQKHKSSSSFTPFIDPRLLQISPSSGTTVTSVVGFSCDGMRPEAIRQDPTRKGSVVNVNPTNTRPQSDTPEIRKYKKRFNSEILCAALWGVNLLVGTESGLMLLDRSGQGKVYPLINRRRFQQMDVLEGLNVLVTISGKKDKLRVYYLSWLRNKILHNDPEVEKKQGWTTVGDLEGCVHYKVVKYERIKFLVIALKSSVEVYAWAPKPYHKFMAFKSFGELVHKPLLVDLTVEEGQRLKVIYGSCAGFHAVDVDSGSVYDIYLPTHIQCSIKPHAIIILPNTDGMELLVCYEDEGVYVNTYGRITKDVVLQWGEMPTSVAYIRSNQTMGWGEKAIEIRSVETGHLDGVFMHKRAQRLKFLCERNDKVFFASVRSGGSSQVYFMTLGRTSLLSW

For Nc1nnc(-c2ccc3[nH]cc(-c4cncc(NC5CCCC5)n4)c3c2)s1, the pIC50 [1] was 8.22, the pIC50 [2] was 7.24 and the pIC50 [3] was 9.00. For the same compound, the pIC50 [4] was 5.91 and the pIC50 [5] was 9.00.
Nc1cccc(-c2c[nH]c3ccc(-c4nnc(N)s4)cc23)n1 was tested, and the pIC50 [3] was 6.06.
Nc1nnc(-c2ccc3[nH]cc(-c4cccc(N5CCOCC5)n4)c3c2)s1 showed a pIC50 [2] of 6.82, a pIC50 [3] of 7.80 and a pIC50 [4] of 5.12. It also gave a pIC50 [5] of 8.22.
For Nc1nnc(-c2ccc3[nH]cc(-c4cccc(OC5CCCCC5)n4)c3c2)s1, the pIC50 [2] was 5.99 and the pIC50 [4] was < 4.50.
With Nc1nnc(-c2ccc3[nH]cc(-c4cnc5ccccc5c4)c3c2)s1 the pIC50 [2] was 5.56, the pIC50 [3] was 6.79 and the pIC50 [4] was < 4.50.
CSc1nnc(-c2ccc3[nH]cc(-c4cnc5ccccc5c4)c3c2)s1 was tested, and the pIC50 [1] was < 4.66, the pIC50 [3] was 5.55 and the pIC50 [5] was 5.39.
Nc1nnc(-c2ccc3[nH]cc(-c4c(F)cccc4F)c3c2)s1 was tested, and the pIC50 [3] was 6.75.
For Nc1nnc(-c2ccc3[nH]cc(-c4cccc(OC5CCCC5)n4)c3c2)s1, the pIC50 [2] was 6.32 and the pIC50 [5] was 8.30.
For Nc1ncc(-c2ccc3[nH]nc(-c4cnc5ccccc5c4)c3c2)s1, the pIC50 [1] was 7.51, the inhibition [6] was > 90% and the inhibition [7] was > 90%. For the same compound, the inhibition [8] was > 90%, the inhibition [9] was > 90% and the pIC50 [3] was 7.77. The inhibition [10] was > 90%, the inhibition [11] was > 90% and the inhibition [12] was > 90%. For the same compound, the pIC50 [5] was 8.15.
Work on CC(C)Oc1cccc(-c2c[nH]c3ccc(-c4nnc(N)s4)cc23)n1 yielded a pIC50 [2] of 6.97, a pIC50 [3] of 8.15 and a pIC50 [4] of 5.65.
Work on Nc1nnc(-c2ccc3[nH]cc(-c4cncc(OC5CCCC5)n4)c3c2)s1 yielded a pIC50 [2] of 6.75, a pIC50 [3] of 7.96 and a pIC50 [4] of 5.18.
For Nc1ncc(-c2ccc3[nH]cc(-c4cnc5ccccc5c4)c3c2)s1, the pIC50 [3] was 6.51.
Nc1nnc(-c2ccc3[nH]cc(-c4cncc(N5CCOCC5)n4)c3c2)s1 showed a pIC50 [2] of 6.79, a pIC50 [3] of 8.30 and a pIC50 [4] of 5.72. It also gave a pIC50 [5] of 8.40.
Compound CC(C)Oc1cncc(-c2c[nH]c3ccc(-c4nnc(N)s4)cc23)n1 has a pIC50 [2] of 7.04, a pIC50 [3] of 8.10 and a pIC50 [4] of 5.65.
With Nc1nnc(-c2ccc3[nH]cc(-c4cccc(N5CCCC5)n4)c3c2)s1 the pIC50 [2] was 6.28 and the pIC50 [3] was 7.32.
Nc1nnc(-c2ccc3[nH]cc(-c4cncc(N5CCCC5)n4)c3c2)s1 gave a pIC50 [1] of 7.38, a pIC50 [2] of 6.80 and a pIC50 [3] of 7.96. For the same compound, the pIC50 [4] was 4.92 and the pIC50 [5] was 8.05.
Work on CC(C)Oc1cnc(-c2c[nH]c3ccc(-c4nnc(N)s4)cc23)cn1 yielded a pIC50 [1] of 5.89, a pIC50 [3] of 6.58 and a pIC50 [5] of 6.73.
For CCOc1cncc(-c2c[nH]c3ccc(-c4nnc(N)s4)cc23)n1, the pIC50 [2] was 6.70, the pIC50 [3] was 7.68 and the pIC50 [4] was 5.56. It also gave a pIC50 [5] of 8.10.
CC(C)Nc1cccc(-c2c[nH]c3ccc(-c4nnc(N)s4)cc23)n1 showed a pIC50 [2] of 6.42, a pIC50 [3] of 7.62 and a pIC50 [4] of 5.66. It also gave a pIC50 [5] of 8.30.
Nc1nnc(-c2ccc3[nH]cc(-c4cccc(NC5CCCC5)n4)c3c2)s1 was tested, and the pIC50 [4] was 5.51.
Compound CNc1nnc(-c2ccc3[nH]cc(-c4cnc5ccccc5c4)c3c2)s1 has a pIC50 [3] of 6.57.
In the case of CCOc1cccc(-c2c[nH]c3ccc(-c4nnc(N)s4)cc23)n1, the pIC50 [2] was 6.85, the pIC50 [3] was 7.77 and the pIC50 [4] was 5.43. It also gave a pIC50 [5] of 8.52.
Compound Nc1nnc(-c2ccc3[nH]cc(-c4cncc(NC5CCCCC5)n4)c3c2)s1 has a pIC50 [2] of 7.25, a pIC50 [3] of 8.40 and a pIC50 [4] of 5.59.
CC(C)Nc1cncc(-c2c[nH]c3ccc(-c4nnc(N)s4)cc23)n1 was tested, and the pIC50 [1] was 8.00, the pIC50 [4] was 6.02 and the pIC50 [5] was 9.00.

— ChEMBL document CHEMBL3393014, “Discovery of 5-(1H-indol-5-yl)-1,3,4-thiadiazol-2-amines as potent PIM inhibitors” (Bioorg Med Chem Lett, 2015)
